Data as given in PMC10913735, “New myxobacteria of the Myxococcaceae clade produce angiolams with antiparasitic activities” (Microbiology Spectrum, 2024).
Like-named read-outs stand apart in the source and are kept apart here.

Key:
[1] = test system: Leishmania donovani (MHOM/ET/67/L82) axenic amastigotes; assay: In vitro activity against Leishmania donovani axenic amastigotes; assay type: cell-based; settings: for L. donovani SI (selectivity index): IC50 in L6 cells divided by IC50 in L. donovani; for IC50: Leishmania donovani, MHOM-ET-67/L82 axenic amastigotes, mean of at least three independent replicates ± SD, read-out: L. donovani IC50
Protocol: (§1) Based on the antiparasitic bioactivity of the crude extract of MCy12716, angiolams A (1), B (2), C (3), D (4), and F (5) were tested for their in vitro activities against the following protozoan parasites: Trypanosoma brucei rhodesiense (STIB 900) bloodstream forms, Trypanosoma cruzi (Tulahuen C4) amastigotes, Leishmania donovani (MHOM/ET/67/L82) axenic amastigotes, and Plasmodium falciparum (NF54) proliferative erythrocytic stages. In parallel, the cytotoxicity of these compounds in rat skeletal myoblasts (L-6 cells) was determined in order to obtain an initial assessment of their selectivity.
(§2) In vitro activity assays against a panel of protozoal parasites, namely Trypanosoma brucei rhodesiense (STIB 900), Trypanosoma cruzi (Tulahuen C4), Leishmania donovani (MHOM/ET/67/L82), and Plasmodium falciparum (NF54), and cytotoxicity tests against mammalian cells (L6-cell line from rat-skeletal myoblasts) were performed according to previously described methods ([2], [3]). All assays were performed in at least three independent replicates.

[2] = Cytotoxicity in L6 cells; assay type: cell-based, rat
Protocol: as §1, §2

[3] = test system: Trypanosoma cruzi (Tulahuen C4) amastigotes; assay: In vitro activity against Trypanosoma cruzi amastigotes; assay type: cell-based; settings: for T. cruzi SI (selectivity index): IC50 in L6 cells divided by IC50 in T. cruzi; for IC50: Trypanosoma cruzi, Tulahuen C4, mean of at least three independent replicates ± SD, read-out: T. cruzi IC50
Protocol: as §1, §2

[4] = test system: Trypanosoma brucei rhodesiense (STIB 900) bloodstream forms; assay: In vitro activity against Trypanosoma brucei rhodesiense bloodstream forms; assay type: cell-based; settings: for T. b. rhodesiense SI (selectivity index): IC50 in L6 cells divided by IC50 in T. b. rhodesiense; for IC50: Trypanosoma brucei, read-out: T. b. rhodesiense IC50
Protocol: as §1, §2

[5] = test system: Plasmodium falciparum (NF54) proliferative erythrocytic stages; assay: In vitro activity against Plasmodium falciparum erythrocytic stages; assay type: cell-based; settings: for P. falciparum SI (selectivity index): IC50 in L6 cells divided by IC50 in P. falciparum; for IC50: Plasmodium falciparum
Protocol: In parallel, the cytotoxicity of these compounds in rat skeletal myoblasts (L-6 cells) was determined in order to obtain an initial assessment of their selectivity.
as §2

[6] = STIB 900, mean of at least three independent replicates ± SD
[7] = NF54, mean of at least three independent replicates ± SD, read-out: P. falciparum IC50
[8] = L6 rat skeletal myoblasts, mean of at least three independent replicates ± SD, read-out: Cytotoxicity in L6 cells IC50

| SMILES | L. donovani SI (selectivity index) [1] | IC50 [1] | IC50 ([2]; rat) | T. cruzi SI (selectivity index) [3] | IC50 [3] | T. b. rhodesiense SI (selectivity index) [4] | IC50 [4, 6] | P. falciparum SI (selectivity index) [5] | IC50 [5, 7] | further results |
| --- | --- | --- | --- | --- | --- | --- | --- | --- | --- | --- |
| C=C/C=C(\C)[C@@H](O)CC[C@@H](C)/C=C/[C@@H]1CC[C@@H](C)C(=O)CC(=O)N[C@@H](C)CCC(=O)[C@@H](C)[C@H](O)[C@@H](C)/C=C(\C)C(=O)O1 [Angiolam A, angiolam A] | 5.62 | 16.7 ± 7.3 µM | 94 ± 23.7 µM | 7.3 | 12.9 ± 5.3 µM | 63.2 | 1.5 ± 0.6 µM | 34.9 | 2.7 ± 0.5 µM |  |
| Nc1nc(N)nc(Nc2ccc([As]3SCC(CO)S3)cc2)n1 (centres unmarked) [Melarsoprol, reference compound] |  |  |  |  |  |  |  |  |  | IC50 [4]: 0.02 µM |
| C=C/C=C(\C)[C@@H](O)CC[C@@H](C)/C=C/[C@@H]1CC[C@@H](C)C(=O)CC(=O)N[C@@H](C)CCC(=O)[C@@H](C)[C@H](O)[C@@H](C)/C=C(\CC)C(=O)O1 [Angiolam D, angiolam D] | 3.38 | 8.2 ± 4.5 µM |  | 4.3 | 6.5 ± 2.2 µM | 6.0 | 4.7 ± 1.9 µM |  | 0.8 ± 0.6 µM | IC50 [2, 8]: 27.8 ± 3.7 µM; P. falciparum SI (selectivity index) ([5]; listed as Angiolam D (4)): 37.1 |
| CCN(CC)CCCC(C)Nc1ccnc2cc(Cl)ccc12 (centres unmarked) [Chloroquine, reference compound] |  |  |  |  |  |  |  |  |  | IC50 ([5]; NF54, read-out: P. falciparum IC50): 0.004 µM |
| C=C/C=C(\C)[C@@H](O)CC[C@@H](C)/C=C/[C@@H]1CC[C@@H](C)C(=O)CC(=O)N[C@@H](C)CCC(=O)[C@@H](C)[C@H](O)[C@@H](CC)/C=C(\CC)C(=O)O1 [Angiolam F, angiolam F] | 2.83 | 17.6 ± 2.1 µM | 49.9 ± 21.6 µM | ≤ 2.1 | 24.4 ± 5 µM | 2.0 | 25 ± 1.4 µM | 37 | 1.3 ± 0.6 µM | T. cruzi SI (selectivity index) ([3]; listed as Angiolam F (5)): 2.1; P. falciparum SI (selectivity index) ([5]; listed as Angiolam F (5)): 37.4 |
| COc1cc([C@@H]2c3cc4c(cc3[C@H](O)[C@H]3COC(=O)[C@H]23)OCO4)cc(OC)c1OC [Podophyllotoxin, reference compound] |  |  |  |  |  |  |  |  |  | IC50 [2, 8]: 0.02 µM |
| C=C/C=C(\C)C(=O)CC[C@@H](C)/C=C/[C@@H]1CC[C@@H](C)C(=O)CC(=O)N[C@@H](C)CCC(=O)[C@@H](C)[C@H](O)[C@@H](C)/C=C(\C)C(=O)O1 [Angiolam B, angiolam B] | 4.22 | 6.6 ± 1.9 µM | 27.8 ± 2 µM | ≤ 2.1 | 30.4 ± 10 µM | 4.4 | 6.3 ± 1 µM | ≥ 30 | 0.3 ± 0.1 µM | T. cruzi SI (selectivity index) ([3]; listed as Angiolam B (2)): 0.9; P. falciparum SI (selectivity index) ([5]; listed as Angiolam B (2)): 91.6 |
| CC/C=C(\C)[C@@H](O)CC[C@@H](C)/C=C/[C@@H]1CC[C@@H](C)C(=O)CC(=O)N[C@@H](C)CCC(=O)[C@@H](C)[C@H](O)[C@@H](C)/C=C(\C)C(=O)O1 [Angiolam C, angiolam C] | 1.99 | 15.4 ± 2.3 µM | 30.6 ± 2.3 µM | ≤ 2.1 | 34 ± 11.6 µM | 6.8 | 4.5 ± 0.4 µM | ≥ 30 | 0.6 ± 0.4 µM | T. cruzi SI (selectivity index) ([3]; listed as Angiolam C (3)): 0.9; P. falciparum SI (selectivity index) ([5]; listed as Angiolam C (3)): 53.7 |
| CCCCCCCCCCCCCCCCOP(=O)([O-])OCC[N+](C)(C)C [Miltefosine, reference compound] |  | 0.53 µM |  |  |  |  |  |  |  |  |
| O=C(Cn1ccnc1[N+](=O)[O-])NCc1ccccc1 [Benznidazole, reference compound] |  |  |  |  | 2.47 µM |  |  |  |  |  |
